Values of other authors in US12403129B2, “Isotope-enriched 3-amino-1-propanesulfonic acid derivatives for the treatment of cerebrovascular disease” (RISEN (SUZHOU) PHARMA TECH CO., LTD., priority 2021, dated 2025).
Entries after “also recorded” stand apart in the source; their conditions may differ.

Details: cited from earlier work
[1] = 2-h time point, oral, 0.72 mmol/kg

## [2H]C([2H])(N)CCS(=O)(=O)O [compound 1, 3-amino-3,3-dideuterium-1-propanesulfonic Acid]
[1]
  concentration of metabolite (2-carboxy-1-ethanesulfonic acid) in plasma compared to 3APS (of natural abundance): much lower
  plasma drug concentration compared to 3APS (of natural abundance): higher
mole-equivalent oral dose (0.72 mmol/kg), mouse plasma
  plasma drug exposure compared to 3APS (of natural abundance): improved plasma drug exposure significantly
mole-equivalent oral dose, mouse
  drug metabolism / metabolic profile compared to 3APS: delayed drug metabolism; also recorded: delayed metabolic profile
